{"source": "patent US20030166721A1", "about": "“Choline derivative for the treatment of alzheimer's disease” (priority 2000, published 2003)", "type_in_all_cases": "in vivo, rat", "key": {"rats": {"test_system": "rats", "experiment": "Synergistic effect with tacrine: qEEG of neocortical activity in rats", "details": "n=7", "protocol": "Results reported in Table 5 show the synergistic effect of the combination of tacrine with the choline derivatives of the present invention.\nVehicle: 2 ml/Kg; all drugs were administered i.p., PC-1 and PC-2 at corresponding equimolar doses (15 μmol/2 ml/kg^−1); THA (tacrine) (5 mg/kg) was administered 30 min before compounds; atropine (0.1 mg/kg) was injected 15 min before PC-1 and PC-2. The number of animals was 7 per each group. Values represent EEG power (μV/s)."}, "Wistar rats [1]": {"test_system": "Wistar rats", "experiment": "EEG spectral qualitative and quantitative analysis in freely moving rats after i.p. administration", "protocol": "Young male Wistar rats (200-260) were used in the experiments, housed in a standard temperature and humidity conditions, with food and water ad libitum. […] After surgery all animals were housed 48 h to allow a complete recovery. 48 Hours after electrode implantation, the animals, placed in a transparent box and freely moving, were connected with an electroencephalograph and the electrocortical activity was continuously monitored and recorded. […] Qualitative and quantitative analysis on the electrocortical activity EEG recording was subsequently carried out. The animals were divided in 4 groups, the first group acted as the control, the second received cytidine-5′-diphosphocholine (CDP-choline), the third and fourth received PC-1 and PC-2, respectively (pivaloylcholine iodide and pivaloyleholine trimethylacetate, respectively). The control group received an equal volume of saline solution by the same procedure. […] Statistical analysis was performed by analysis of variance (ANOVA) for multiple measurements followed, if significant, by the post-hoc Tuckey-Kramer test. A comparison between groups was performed to exclude any individual variability."}, "NBM lesioned rats": {"test_system": "NBM lesioned rats", "experiment": "EEG in rats with unilateral AMPA lesion of Meynert nucleus basalis (NBM)", "protocol": "Male Wistar rats (200-250 g), anaesthetised with chloral hydrate (400 mg/kg), were subjected to unilateral lesion of Meynert nucleus basalis (NBM), by intracerebral infusion of α-amino-3-hydroxy-4-isoxazolepropionic acid (AMPA) (1.3 μg/0.5 μl). The animals were divided into four groups, the first two were subjected to NBM lesion; the third was a sham-operated group, and the last was the control group. Two weeks after the lesion, the animals were implanted under general anesthesia, with cortical electrodes (n=4) onto the fronto-parietal region, so as to make it possible, 24 hours later, to record the EEG activity of freely moving animals. EEG activity was continuously monitored and recorded for 60 min by a computerised EEG Berg-Fourier apparatus. Spontaneous activity of the EEG spectrum total power (0.25-16 Hz), as well as that of preselected frequency bands, was recorded for times of 5 min and quantitized (μV).\nIn order to quantitize AMPA-induced neuronal loss in NBM, coronal serial sections of rat brain were prepared, then stained with toluidine blue to verify the injection site and treated, by immunohistochemical procedure, with 192LR-NGF to quantitize the neuronal loss. Said sections were analysed by a computerized system for image analysis (Axiophoy Zeiss and Vidas Kintron). Statistical analysis of the data from the morphological study was performed by ANOVA followed, if significant, by the post-hoc Tuckey-Kramer test.\nIn lesioned animals (n=16), with about 45% neuronal loss at the NBM level (FIG. 5), EEG synchronization accompanied with significant increase (P<0.01) in total power (0.25-16 Hz), (170.4±25.8) of EEG spectrum (μV), as well as in higher frequency bands (6-9, 9-12 and 12-16 Hz) (FIG. 7; Tab. 4), was observed. EEG activity of half the NBM lesioned animals was further recorded. After recording the baseline EEG activity, this group of animals was intraperitoneally administered with a PC-1 single dose."}, "Wistar rats [2]": {"test_system": "Wistar rats", "experiment": "Behavioural and EEG effects in rats at different doses", "protocol": "Young male Wistar rats (200-260) were used in the experiments, housed in a standard temperature and humidity conditions, with food and water ad libitum.\nThe animals, anaesthetised with chloral hydrate (400 mg/kg) […], were stereotaxically implanted (Kopft Instruments) with cortical electrodes (n=4) onto the fronto-parietal region of the neocortex on both cerebral hemispheres, to record EEG. After surgery all animals were housed 48 h to allow a complete recovery.\n48 Hours after electrode implantation, the animals, placed in a transparent box and freely moving, were connected with an electroencephalograph and the electrocortical activity was continuously monitored and recorded. After a 30 min control time, the compounds under test were intraperitoneally administered and EEG recording was continued for 90-120 min\nEEG was recorded by computerised 24-channels apparatus (Vega 24, Galileo type, ESA-OTE Biomedica, Florence, Italy), while the spectrum activity was quantitatively analysed by a Berg Fourier analyser (ESA-OTE Biomedica, Florence, Italy). The total EEG power (0.25-16 Hz range) was divided into 5 variable frequency bands: δ 0.25-3 Hz, θ 3-6; α1 6-9; α2 9-12 and β12-16 Hz.\nThe EEG patterns and behavioral effects observed in the rat after administration of the choline derivatives and of the vehicle is reported in 5 Tab. 3. Such effects can be ascribed to the changes of EEG spectrum total power. An […] in EEG total power is related with the presence of slow frequency waves (synchronisation), whereas an […] thereof is related with the presence of rapid frequency waves (desynchronisation)."}, "[3]": {"details": "rats i.p., PC-1/PC-2 15 μmol/2 ml/kg, THA 5 mg/kg 30 min before, atropine 0.1 mg/kg 15 min before"}, "[4]": {"details": "after i.p. administration, % ± SEM"}, "[5]": {"details": "i.p. (vol. 0.5 ml), mean ± SEM, 7 tests"}, "[6]": {"details": "NBM unilaterally lesioned rats + PC-1 (5 mg i.p.), hemisphere ipsilateral to lesion"}}, "data": [{"smiles": "CC(C)(C)C(=O)OCC[N+](C)(C)C.[I-]", "note": "[PC-1, pivaloylcholine iodide]", "values": [{"measurement": "EEG power (qEEG of neocortical activity), 15″", "setting": "rats; [3]", "value": 68, "unit": "μV/s"}, {"measurement": "EEG power (qEEG of neocortical activity), 30″", "setting": "rats; [3]", "value": 120, "unit": "μV/s"}, {"measurement": "EEG power (qEEG of neocortical activity), 45″", "setting": "rats; [3]", "value": 127, "unit": "μV/s"}, {"measurement": "EEG power (qEEG of neocortical activity), 60″", "setting": "rats; [3]", "value": 115, "unit": "μV/s"}, {"measurement": "EEG power (qEEG of neocortical activity), 75″", "setting": "rats; [3]", "value": 129.5, "unit": "μV/s"}, {"measurement": "EEG power (qEEG of neocortical activity), 90″", "setting": "rats; [3]", "value": 117, "unit": "μV/s"}, {"measurement": "EEG power (qEEG of neocortical activity), 105″", "setting": "rats; [3]", "value": 132.5, "unit": "μV/s"}, {"measurement": "EEG power (qEEG of neocortical activity), 120″", "setting": "rats; [3]", "value": 18.5, "unit": "μV/s"}, {"measurement": "EEG power (qEEG of neocortical activity), 135″", "setting": "rats; [3]", "value": 135, "unit": "μV/s"}, {"measurement": "EEG effect with tacrine given 30 min before", "setting": "rats; rats, THA 5 mg/Kg i.p. 30 min before 15 μmol i.p.", "value": "long-lasting EEG desynchronization and significant decrease in EEG spectrum total power"}, {"measurement": "EEG power (qEEG of neocortical activity), Baseline", "setting": "rats; rats, before i.p. treatment", "value": 112.5, "unit": "μV/s"}, {"measurement": "Change of slow EEG spectrum components (FIG. 3)", "setting": "Wistar rats [1]", "value": "decrease in slow components (delta and theta) of the spectrum"}, {"measurement": "Duration of the decrease in EEG total power", "setting": "Wistar rats [1]; 5 mg i.p.", "value": 15, "unit": "min"}, {"measurement": "Time to onset of EEG desynchronization and significant decrease in EEG total power", "setting": "Wistar rats [1]; 5 mg i.p.", "value": 15, "unit": "min"}, {"measurement": "EEG frequency band 0.25-3 Hz", "setting": "Wistar rats [1]; [4]", "value": "4.3 ± 0.7(*) %"}, {"measurement": "EEG frequency band 3-6 Hz", "setting": "Wistar rats [1]; [4]", "value": "18 ± 0.6(*) %"}, {"measurement": "EEG frequency band 6-9 Hz", "setting": "Wistar rats [1]; [4]", "value": "32.5 ± 1.3", "unit": "%"}, {"measurement": "EEG frequency band 9-12 Hz", "setting": "Wistar rats [1]; [4]", "value": "19.3 ± 0.9", "unit": "%"}, {"measurement": "EEG frequency band 12-16 Hz", "setting": "Wistar rats [1]; [4]", "value": "13 ± 1.0", "unit": "%"}, {"measurement": "Effect of atropine given 15 min before the compound", "setting": "Wistar rats [1]; atropine pretreatment", "value": "antagonize the effects"}, {"measurement": "EEG total power (fronto-parietal cortex), Baseline", "setting": "Wistar rats [1]; before i.p. injection (vol. 0.5 ml), mean ± SEM, 7 tests", "value": "120 ± 2.9"}, {"measurement": "EEG total power (fronto-parietal cortex), 15′", "setting": "Wistar rats [1]; [5]", "value": "82 ± 3.6(*)"}, {"measurement": "EEG total power (fronto-parietal cortex), 30′", "setting": "Wistar rats [1]; [5]", "value": "128 ± 3.2"}, {"measurement": "EEG total power (fronto-parietal cortex), 45′", "setting": "Wistar rats [1]; [5]", "value": "110 ± 2.7"}, {"measurement": "EEG total power (fronto-parietal cortex), 60′", "setting": "Wistar rats [1]; [5]", "value": "120 ± 4.3"}, {"measurement": "EEG total power (fronto-parietal cortex), 75′", "setting": "Wistar rats [1]; [5]", "value": "125 ± 3.5"}, {"measurement": "EEG total power (fronto-parietal cortex), 90′", "setting": "Wistar rats [1]; [5]", "value": "127 ± 4"}, {"measurement": "Effect on EEG spectrum after NBM excitotoxic lesion (FIG. 7)", "setting": "NBM lesioned rats; NBM lesioned rats (AMPA), 5 mg i.p.", "value": "restores both the normal composition of EEG spectrum and the distribution of its frequencies"}, {"measurement": "Duration of the decrease in ECoG spectrum total power", "setting": "NBM lesioned rats; NBM lesioned rats, 5 mg i.p.", "value": "about 15 min"}, {"measurement": "Time to onset of alert response, EEG desynchronization and decrease in ECoG total power", "setting": "NBM lesioned rats; NBM lesioned rats, 5 mg i.p.", "value": "≤ 15", "unit": "min"}, {"measurement": "Change in 6 rhythm (0.25-3 Hz)", "setting": "NBM lesioned rats; NBM lesioned rats, 5 mg i.p., P<0.05", "value": "significant decrease"}, {"measurement": "ECoG spectrum total power, second value of printed pair", "setting": "NBM lesioned rats; NBM lesioned rats, 5 mg i.p., presumably after PC-1", "value": "96±20.3"}, {"measurement": "ECoG spectrum total power, first value of printed pair", "setting": "NBM lesioned rats; NBM lesioned rats, 5 mg i.p., presumably before PC-1", "value": "150±19.3"}, {"measurement": "EEG spectrum band 0.25-3 Hz", "setting": "NBM lesioned rats; [6]", "value": 3.4, "unit": "%"}, {"measurement": "EEG spectrum band 3-6 Hz", "setting": "NBM lesioned rats; [6]", "value": 33.3, "unit": "%"}, {"measurement": "EEG spectrum band 6-9 Hz", "setting": "NBM lesioned rats; [6]", "value": 23.5, "unit": "%"}, {"measurement": "EEG spectrum band 9-12 Hz", "setting": "NBM lesioned rats; [6]", "value": 13.6, "unit": "%"}, {"measurement": "EEG spectrum band 12-16 Hz", "setting": "NBM lesioned rats; [6]", "value": 14.6, "unit": "%"}, {"measurement": "Behaviour", "setting": "Wistar rats [2]; 1 mg", "value": "Alert response"}, {"measurement": "EEG Activity (change of EEG total power)", "setting": "Wistar rats [2]; 1 mg", "value": "Decrease"}, {"measurement": "Behaviour", "setting": "Wistar rats [2]; 5 mg", "value": "Alert response"}, {"measurement": "EEG Activity (change of EEG total power)", "setting": "Wistar rats [2]; 5 mg", "value": "Decrease"}, {"measurement": "Behaviour", "setting": "Wistar rats [2]; 50 mg", "value": "Convulsions and death (50%)"}, {"measurement": "EEG Activity (change of EEG total power)", "setting": "Wistar rats [2]; 50 mg", "value": "Peaks"}]}]}
